This test concerns the target T1, human DGAT2 (Homo sapiens, UniProt Q96PD7).
T1 construct: FLAG (DYKDDDDK); made in house; host or cells: Sf-21 insect cells (BacPAK baculovirus system); membrane fraction used
T1 sequence (Q96PD7 1-388): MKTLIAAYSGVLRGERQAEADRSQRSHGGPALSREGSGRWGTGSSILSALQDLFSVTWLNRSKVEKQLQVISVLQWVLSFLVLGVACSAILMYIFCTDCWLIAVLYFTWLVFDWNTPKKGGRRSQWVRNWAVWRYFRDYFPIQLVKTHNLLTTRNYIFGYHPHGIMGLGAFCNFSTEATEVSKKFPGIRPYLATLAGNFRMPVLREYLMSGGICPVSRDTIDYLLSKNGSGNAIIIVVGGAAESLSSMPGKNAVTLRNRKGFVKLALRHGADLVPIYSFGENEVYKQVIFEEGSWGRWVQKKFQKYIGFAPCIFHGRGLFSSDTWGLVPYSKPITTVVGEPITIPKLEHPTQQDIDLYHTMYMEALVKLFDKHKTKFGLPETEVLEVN
As to the kind of experiment: DGAT2 enzyme activity inhibition, Phospholipid FlashPlate SPA. In kind it is biochemical. To be noted: recombinant human DGAT2 membrane protein from Sf-21 cells; inhibition of [14C]-TG production; 37° C. The protocol: In order to prepare the pBacPAK9-DGAT2, which is DGAT2 expression vector, the human DGAT2 gene amplified by polymerase chain reaction (PCR) was cloned into the EcoR1 and Xho1 sites of the pBacPAK9 (clonctech) vector. The nucleotide sequence of the primers used in PCR was the forward primer 5′ […] (SEQ. ID. NO: 2). The composition of the reaction solution was to contain 50 ng of cDNA clone (OriGene), 200 μM of dATP, dCTP, dTTP, dGTP, 200 nM of each primer, 1 unit of Tag DNA Polymerase (Toyobo), 1×PCR buffer, and the final volume was adjusted to 20 μl. The reaction conditions were denatured at 95° C. for 5 minutes, followed by 30 times of 94° C. for 20 seconds, 60° C. for 20 seconds, and 72° C. for 90 seconds, followed by further reaction at 72° C. for 7 minutes.
Recombinant human DGAT2 protein was expressed in Sf-21 cells, which are insect cells, by using the BacPack baculovirus expression system (Clontech). The brief manufacturing process is as follows. First, the pBacPAK9-DGAT2 expression vector was transfected with BacPAK6 virus DNA (Bsu36I digest) into sf21 cells using Bacfectin to prepare a recombinant DGAT2 expressing baculovirus. The thus prepared baculovirus was infected with Sf-21 cells at 10 MOI (multiplicity of infection), and after 72 hours, infected insect cells were collected and membrane proteins were isolated. For membrane protein separation, the cell pellet was dissolved in a sucrose solution containing 250 mM sucrose, 10 mM Tris (pH 7.4), and 1 mM ethylenediamine-tetraacetic acid (EDTA), and then homogenized by using a dounce homogenizer, and the supernatant was taken by centrifuging at 600×g for 15 minutes, and centrifuged at 100,000×g for 1 hour to discard the supernatant, and the remaining pellet was resuspended in 20 mM HEPES buffer (pH 7.4). The prepared DGAT2 overexpressing membrane protein was dispensed in 100 μl and stored at −80° C. until use. Protein concentration was quantified by using the BCA Protein Assay Kit (Thermo Scientific).
In vitro DGAT2 analysis was performed using a Phospholipid Flash Plate (PerkinElmer) based on the principle of SPA (Scintilation Proximity Assay). First, DGAT2 inhibition compounds serially diluted 5 times from 3 nM to 10 μM (final concentration, 1% DMSO) were mixed in a buffer solution containing 2 μg DGAT2-membrane protein and 20 mM HEPES, 20 mM MgCl2, 1 mg/mL BSA, 50 μM 1,2 sn-oleoyl glycerol (Sigma), put in a 96-well flash plate (FlashPlate) and reacted at 37° C. for 20 minutes, and then 1 μM [14C] ole oil CoA (PerkinElmer, NEC651050UC) was added to be a final volume of 100 μL and further reacted at 37° C. for 15 minutes. After the enzymatic reaction was completed, 100 μL of isopropanol was added, the plate was sealed with a film, and the plate was shaken slowly in a plate shaker. The next day, the amplified scintillation signal (cpm) in Topcounter (Packard) was measured to measure the degree of production of [14C]-labeled triacyl glycerol (TG) as a reaction product. The measured value when the compound was not treated was used as a positive control, and the measured value of the compound treated group was calculated as a relative % to measure the inhibition effect of the compound on TG production.

SMILES strings stand for the structures. pIC50: −log10 of the molar value. Bounds are passed on as bounds.

Usually pIC50 stands for −log10 of the IC50, conventionally taken in molar units. Regarding `CCOc1ccccc1O[C@@H]1CCCN(c2cncc(Nc3cccc(-c4ccc(CC(C)(C)C(=O)O)cc4)c3)n2)C1` [Example 30, (R)-3-(3′-((6-(3-(2-ethoxyphenoxy)piperidin-1-yl)pyrazin-2-yl)amino)-[1,1′-biphenyl]-4-yl)-2,2-dimethylpropanoic Acid], the pIC50 is 5.62.

Take `CCOc1ccccc1O[C@@H]1CCCN(c2cncc(Nc3ccccn3)n2)C1` [Example 31, (R)-6-(3-(2-ethoxyphenoxy)piperidin-1-yl)-N-(pyridin-2-yl)pyrazin-2-amine]: the pIC50 is 6.89.

With `CCOc1ccccc1O[C@@H]1CCCN(c2cncc(Nc3ccc(C(=O)O)cn3)n2)C1` [Example 32, (R)-6-((6-(3-(2-ethoxyphenoxy)piperidin-1-yl)pyrazin-2-yl)amino)nicotinic Acid], the pIC50 was less than 5.00.

In the case of `CCOc1ccccc1O[C@@H]1CCCN(c2cncc(Nc3cc(C(=O)O)ccn3)n2)C1` [Example 33, (R)-2-((6-(3-(2-ethoxyphenoxy)piperidin-1-yl)pyrazin-2-yl)amino)isonicotinic Acid], the pIC50 was less than 5.00.

For the compound `CCOc1ccccc1O[C@@H]1CCCN(c2cncc(Nc3ncccc3C(=O)O)n2)C1` [Example 34, (R)-2-((6-(3-(2-ethoxyphenoxy)piperidin-1-yl)pyrazin-2-yl)amino)nicotinic Acid], the pIC50 is less than 5.00.

`CCOc1ccccc1O[C@@H]1CCCN(c2cncc(Nc3cc(C(C)(C)C(=O)O)ccn3)n2)C1` [Example 35, (R)-2-(2-((6-(3-(2-ethoxyphenoxy)piperidin-1-yl)pyrazin-2-yl)amino)pyridin-4-yl)-2-methylpropanoic Acid]: the pIC50 was 6.36.

For the compound `CCOc1ccccc1O[C@@H]1CCCN(c2cncc(Nc3ccc(CC(=O)O)cn3)n2)C1` [Example 36, (R)-2-(6-((6-(3-(2-ethoxyphenoxy)piperidin-1-yl)pyrazin-2-yl)amino)pyridin-3-yl)acetic Acid], the negative-log IC50 (pIC50) is less than 5.00.

Regarding `CCOc1ccccc1O[C@@H]1CCCN(c2cncc(Nc3ccc(/C=C/C(=O)O)cn3)n2)C1` [Example 37, (R,E)-3-(6-((6-(3-(2-ethoxyphenoxy)piperidin-1-yl)pyrazin-2-yl)amino)pyridin-3-yl)acrylic Acid], the pIC50 was less than 5.00.

With `CCOc1ccccc1O[C@@H]1CCCN(c2cncc(Nc3ccc(CCC(=O)O)cn3)n2)C1` [Example 38, (R)-3-(6-((6-(3-(2-ethoxyphenoxy)piperidin-1-yl)pyrazin-2-yl)amino)pyridin-3-yl)propanoic Acid], the pIC50 was less than 5.00.

`CCOc1ccccc1O[C@@H]1CCCN(c2cncc(Nc3cc(CC(C)(C)C(=O)O)ccn3)n2)C1` [Example 39, (R)-3-(2-((6-(3-(2-ethoxyphenoxy)piperidin-1-yl)pyrazin-2-yl)amino)pyridin-4-yl)-2,2-dimethylpropanoic Acid]: the pIC50 is 5.57.

On to `CCOc1ccccc1O[C@@H]1CCCN(c2cncc(Nc3ccc(-c4ccccc4)cn3)n2)C1` [Example 40, (R)-6-(3-(2-ethoxyphenoxy)piperidin-1-yl)-N-(5-phenylpyridin-2-yl)pyrazin-2-amine], for which the pIC50 was 5.77.

As for `CCOc1ccccc1O[C@@H]1CCCN(c2cncc(Nc3cc(-c4ccccc4)ccn3)n2)C1` [Example 41, (R)-6-(3-(2-ethoxyphenoxy)piperidin-1-yl)-N-(4-phenylpyridin-2-yl)pyrazin-2-amine], the pIC50 was 6.22.

In the case of `CCOc1ccccc1O[C@@H]1CCCN(c2cncc(Nc3cc(-c4cccc(C(C)(C)C(=O)O)c4)ccn3)n2)C1` [Example 42, (R)-2-(3-(2-((6-(3-(2-ethoxyphenoxy)piperidin-1-yl)pyrazin-2-yl)amino)pyridin-4-yl)phenyl)-2-methylpropanoic Acid], the pIC50 is 5.43.

Turning to `CCOc1ccccc1O[C@@H]1CCCN(c2cncc(Nc3cc(-c4ccc(C(C)(C)C(=O)O)cc4)ccn3)n2)C1` [Example 43, (R)-2-(4-(2-((6-(3-(2-ethoxyphenoxy)piperidin-1-yl)pyrazin-2-yl)amino)pyridin-4-yl)phenyl)-2-methylpropanoic Acid], the pIC50 is 5.51.

In the case of `CCOc1ccccc1O[C@@H]1CCCN(c2cncc(Nc3cc(-c4cccc(CC(C)(C)C(=O)O)c4)ccn3)n2)C1` [Example 44, (R)-3-(3-(2-((6-(3-(2-ethoxyphenoxy)piperidin-1-yl)pyrazin-2-yl)amino)pyridin-4-yl)phenyl)-2,2-dimethylpropanoic Acid], the pIC50 is 5.40.

Take `CCOc1ccccc1O[C@@H]1CCCN(c2cncc(Nc3cc(-c4ccc(CC(C)(C)C(=O)O)cc4)ccn3)n2)C1` [Example 45, (R)-3-(4-(2-((6-(3-(2-ethoxyphenoxy)piperidin-1-yl)pyrazin-2-yl)amino)pyridin-4-yl)phenyl)-2,2-dimethylpropanoic Acid]: the pIC50 is 6.11.

In the case of `CCOc1ccccc1O[C@@H]1CCCN(c2cncc(Nc3cc(-c4cccc(CCC(=O)O)c4)ccn3)n2)C1` [Example 46, (R)-3-(3-(2-((6-(3-(2-ethoxyphenoxy)piperidin-1-yl)pyrazin-2-yl)amino)pyridin-4-yl)phenyl)propanoic Acid], the pIC50 is 5.74.

On to `CCOc1ccccc1O[C@@H]1CCCN(c2cncc(Nc3cncc(-c4cccc(CC(C)(C)C(=O)O)c4)c3)n2)C1` [Example 47, (R)-3-(3-(5-((6-(3-(2-ethoxyphenoxy)piperidin-1-yl)pyrazin-2-yl)amino)pyridin-3-yl)phenyl)-2,2-dimethylpropanoic Acid], for which the pIC50 was less than 5.00.

As to `CCOc1ccccc1O[C@@H]1CCCN(c2cncc(Nc3ccc(-c4cccc(CC(C)(C)C(=O)O)c4)nc3)n2)C1` [Example 48, (R)-3-(3-(5-((6-(3-(2-ethoxyphenoxy)piperidin-1-yl)pyrazin-2-yl)amino)pyridin-2-yl)phenyl)-2,2-dimethylpropanoic Acid], the pIC50 was 5.74.

For the compound `CCOc1ccccc1O[C@@H]1CCCN(c2cncc(Nc3ccc(C(C)(C)C(=O)O)cn3)n2)C1` [Example 49], the pIC50 was less than 5.00.

`CCOc1ccccc1O[C@@H]1CCCN(c2cncc(Nc3cccc(C(C)(C)C(=O)O)n3)n2)C1` [Example 50, (R)-2-(6-((6-(3-(2-ethoxyphenoxy)piperidin-1-yl)pyrazin-2-yl)amino)pyridin-2-yl)-2-methylpropanoic Acid]: the pIC50 is 5.14.

In the case of `CCOc1ccccc1O[C@@H]1CCCN(c2cncc(Nc3cccc(CC(C)(C)C(=O)O)n3)n2)C1` [Example 51, (R)-3-(6-((6-(3-(2-ethoxyphenoxy)piperidin-1-yl)pyrazin-2-yl)amino)pyridin-2-yl)-2,2-dimethylpropanoic Acid], the pIC50 is 5.72.

On to `CCOc1ccccc1O[C@@H]1CCCN(c2cncc(Nc3cccc(N4CCC(C(=O)O)C4)n3)n2)C1` (stereo partly drawn) [Example 52, 1-(6-((6-((R)-3-(2-ethoxyphenoxy)piperidin-1-yl)pyrazin-2-yl)amino)pyridin-2-yl)pyrrolidine-3-carboxylic Acid], for which the pIC50 was 6.14.

With `CCOc1ccccc1O[C@@H]1CCCN(c2cncc(Nc3cccc(N4CCC(C)(C(=O)O)C4)n3)n2)C1` (stereo partly drawn) [Example 53, 1-(6-((6-((R)-3-(2-ethoxyphenoxy)piperidin-1-yl)pyrazin-2-yl)amino)pyridin-2-yl)-3-methylpyrrolidine-3-carboxylic Acid], the pIC50 is 6.29.

These data come from patent US12630528B2, “Amino aryl derivative useful as diacylglycerol acyltransferase 2 inhibitor and use thereof” (LG CHEM, LTD., priority 2019, dated 2026).
